{"source": "patent US20250134855A1", "about": "“CO[…] AND METHODS OF USING SAME” (LYKOS THERAPEUTICS, INC., priority 2022, published 2025)", "experiment": "Study MPKF: plasma pharmacokinetics of MDMA and MDA, single 120 mg MDMA·HCl, fasted/fed", "type": "in vivo, human", "conditions": "for Tmax: median", "from_the_text": "The MPKF was a Phase 1, open-label, randomized sequence, multi-dose, 2-period crossover food effect study in 16 healthy individuals. The MPKF study evaluated plasma concentrations of both MDMA and the active metabolite 3,4-methylenedioxyamphetamine (MDA). Summary PK Parameters of the preliminary data was based on interim analysis are presented in Table 12 Table 12 Table 12, and Table 13 Table 13 Table 13 for MDMA and MDA, respectively.\nParticipants were randomized to receive 1 of 2 conditions before the other: • Fasted Treatment: at least 10 hours of fasting followed by administration of MDMA HCl with 240 mL water. • Fed Treatment: at least 10 hours of fasting followed by a high-fat (approximately 50% of total caloric content of the meal) and high-calorie (approximately 800 to 1000 calories) meal was consumed within 30 minutes prior to IMP administration.\nParticipants remained at the clinical research unit (CRU) for each Dosing Session from the time of check-in on the night before dosing until discharge 48 hours after dosing for collection of serial blood samples for PK analysis and safety monitoring. IMP was administered on Day 1 following the treatment sequence to which the participant was randomized. An additional outpatient visit occurred 72 hours after dosing to collect a final PK sample, commensurate with the expected PK profiles of MDMA and MDA. Safety assessments were also performed at this visit.\nThe washout period between Dosing Sessions was at least 14 days. If a participant experienced emesis within 4 hours of administration, they were to be withdrawn from the study and replaced with a new participant. An End of Study Visit was performed 2 to 10 days after the completion of the final Dosing Session 72-hour follow-up. An informal interim analysis was planned to be conducted after at least 5 participants completed at least 1 Dosing Session to examine PK variability.\nThe API was a white crystalline powder of pharmaceutical quality, made according to current Good Manufacturing Practices (cGMP) for human use.\nParticipants: Sixteen healthy individuals were recruited for the study.\nIntervention: The study was conducted as a Phase 1, open-label, randomized sequence, multi-dose, 2-period crossover food effect study. Each participant received multiple doses of MDMA, and plasma concentrations of both MDMA and the active metabolite MDA were measured.\nSample Collection: Blood samples were collected at various time points up to 72 hours after dosing. The samples were analyzed using validated liquid chromatography-tandem mass spectrometry (LC-MS/MS) methods.\nData Analysis: The summary PK parameters were presented in Table 12 for MDMA and Table 13 for MDA. The data were analyzed using descriptive statistics, and the mean and standard deviation were calculated. The results were compared between the two periods and analyzed for food effects. Statistical analyses were performed using appropriate methods, such as analysis of variance (ANOVA) and paired t-tests. A p-value of less than 0.05 was considered statistically significant.", "key": {"[1]": {"conditions": "Fasted (N = 15), 120 mg MDMA·HCl, geometric mean"}, "[2]": {"conditions": "Fed (N = 14), 120 mg MDMA·HCl, geometric mean"}}, "note": "Read-outs that look alike come from different tables or passages of the source."}
{"compound": "CC(N)Cc1ccc2c(c1)OCO2", "note": "(centres unmarked) [MDA, 3,4-methylenedioxyamphetamine]", "values": [{"measurement": "higher plasma PK values in intermediate relative to normal CYP2D6 metabolizers", "setting": "8 intermediate, 8 normal metabolizers", "value": "approximately 13%"}, {"measurement": "Cmax, Geometric LSM", "setting": "Fasted", "value": 12.39, "unit": "ng/mL"}, {"measurement": "CL/F", "setting": "[1]", "value": 302.8, "unit": "L/h"}, {"measurement": "Cmax", "setting": "[1]", "value": 12, "unit": "ng/mL"}, {"measurement": "Tlag", "setting": "[1]", "value": 0.6, "unit": "h"}, {"measurement": "Tmax", "setting": "Fasted (N = 15), 120 mg MDMA·HCl", "value": 6, "unit": "h"}, {"measurement": "Cmax, Geometric LSM", "setting": "Fed", "value": 11.92, "unit": "ng/mL"}, {"measurement": "CL/F", "setting": "[2]", "value": 270.7, "unit": "L/h"}, {"measurement": "Cmax", "setting": "[2]", "value": 12, "unit": "ng/mL"}, {"measurement": "Tlag", "setting": "[2]", "value": 0.7, "unit": "h"}, {"measurement": "Tmax", "setting": "Fed (N = 14), 120 mg MDMA·HCl", "value": 7, "unit": "h"}, {"measurement": "Cmax", "setting": "both sexes, human, plasma, po, single 120 mg dose of MDMA·HCl, fasting healthy males and females, read-out: Cmax", "value": 13.3, "unit": "ng/mL"}, {"measurement": "AUC0-72, Geometric Mean Ratio", "setting": "fed vs fasted", "value": 0.98}, {"measurement": "AUC0-inf, Geometric Mean Ratio", "setting": "fed vs fasted", "value": 0.99}, {"measurement": "AUC0-t, Geometric Mean Ratio", "setting": "fed vs fasted", "value": 0.90}, {"measurement": "Cmax, Geometric Mean Ratio", "setting": "fed vs fasted", "value": 0.96}, {"measurement": "effect of food on exposure", "setting": "high-fat meal vs fasting, single 120 mg MDMA·HCl", "value": "not affected by food"}, {"measurement": "AUC0-inf of MDA relative to MDMA", "setting": "human, plasma, oral, 120 mg", "value": "less than 10%"}, {"measurement": "peak plasma levels of MDA relative to MDMA", "setting": "human, plasma, oral, 120 mg", "value": "less than 10%"}, {"measurement": "AUC(0-t)", "setting": "human, plasma, oral, 120 mg, Fasted, read-out: AUC0-72, Geometric LSM", "value": 312, "unit": "ng·h/mL"}, {"measurement": "AUC(0-inf)", "setting": "human, plasma, oral, 120 mg, Fasted, read-out: AUC0-inf, Geometric LSM", "value": 331, "unit": "ng·h/mL"}, {"measurement": "AUC(0-t)", "setting": "human, plasma, oral, 120 mg, Fasted, read-out: AUC0-t, Geometric LSM", "value": 282, "unit": "ng·h/mL"}, {"measurement": "AUC(0-t)", "setting": "human, plasma, oral, 120 mg, Fed, read-out: AUC0-72, Geometric LSM", "value": 306, "unit": "ng·h/mL"}, {"measurement": "AUC(0-inf)", "setting": "human, plasma, oral, 120 mg, Fed, read-out: AUC0-inf, Geometric LSM", "value": 328, "unit": "ng·h/mL"}, {"measurement": "AUC(0-t)", "setting": "human, plasma, oral, 120 mg, Fed, read-out: AUC0-t, Geometric LSM", "value": 254, "unit": "ng·h/mL"}, {"measurement": "Vd/F", "setting": "human, plasma, po, 120 mg, Fasted (N = 15), 120 mg MDMA·HCl, geometric mean", "value": 5520, "unit": "L"}, {"measurement": "AUC(0-t)", "setting": "human, plasma, po, 120 mg, Fasted (N = 15), 120 mg MDMA·HCl, geometric mean, read-out: AUC0-72", "value": 313, "unit": "ng·h/mL"}, {"measurement": "AUC(0-inf)", "setting": "human, plasma, po, 120 mg, Fasted (N = 15), 120 mg MDMA·HCl, geometric mean, read-out: AUC0-inf", "value": 330, "unit": "ng·h/mL"}, {"measurement": "AUC(0-t)", "setting": "human, plasma, po, 120 mg, Fasted (N = 15), 120 mg MDMA·HCl, geometric mean, read-out: AUC0-t", "value": 282, "unit": "ng·h/mL"}, {"measurement": "half-life", "setting": "human, plasma, po, 120 mg, Fasted (N = 15), 120 mg MDMA·HCl, geometric mean, read-out: T1/2 (converted)", "value": 12.6, "unit": "h"}, {"measurement": "Vd/F", "setting": "human, plasma, po, 120 mg, Fed (N = 14), 120 mg MDMA·HCl, geometric mean", "value": 5000, "unit": "L"}, {"measurement": "AUC(0-t)", "setting": "human, plasma, po, 120 mg, Fed (N = 14), 120 mg MDMA·HCl, geometric mean, read-out: AUC0-72", "value": 322, "unit": "ng·h/mL"}, {"measurement": "AUC(0-inf)", "setting": "human, plasma, po, 120 mg, Fed (N = 14), 120 mg MDMA·HCl, geometric mean, read-out: AUC0-inf", "value": 369, "unit": "ng·h/mL"}, {"measurement": "AUC(0-t)", "setting": "human, plasma, po, 120 mg, Fed (N = 14), 120 mg MDMA·HCl, geometric mean, read-out: AUC0-t", "value": 255, "unit": "ng·h/mL"}, {"measurement": "half-life", "setting": "human, plasma, po, 120 mg, Fed (N = 14), 120 mg MDMA·HCl, geometric mean, read-out: T1/2 (converted)", "value": 12.8, "unit": "h"}, {"measurement": "AUC(0-inf)", "setting": "human, plasma, po, 120 mg, single 120 mg dose of MDMA·HCl, fasting, read-out: AUC0-inf", "value": 374, "unit": "ng·h/mL"}, {"measurement": "half-life", "setting": "human, plasma, po, 120 mg, single 120 mg dose of MDMA·HCl, fasting, read-out: t1/2 (converted)", "value": 12.8, "unit": "h"}, {"measurement": "Tmax", "setting": "single 120 mg dose of MDMA·HCl, fasting", "value": 6, "unit": "h"}]}
